Test results taken from patent US12534469B2 (CHILDREN'S HOSPITAL MEDICAL CENTER, priority 2020, dated 2026).

Target: T1, FLT3 (Homo sapiens, UniProt P36888)
T1 construct: using full-length kinases in the presence of cellular concentrations of ATP in live, uncompromised cells; assay by Reaction Biology; host or cells: HEK-293 (ATCC), transient transfection
T1 sequence (P36888 27-993): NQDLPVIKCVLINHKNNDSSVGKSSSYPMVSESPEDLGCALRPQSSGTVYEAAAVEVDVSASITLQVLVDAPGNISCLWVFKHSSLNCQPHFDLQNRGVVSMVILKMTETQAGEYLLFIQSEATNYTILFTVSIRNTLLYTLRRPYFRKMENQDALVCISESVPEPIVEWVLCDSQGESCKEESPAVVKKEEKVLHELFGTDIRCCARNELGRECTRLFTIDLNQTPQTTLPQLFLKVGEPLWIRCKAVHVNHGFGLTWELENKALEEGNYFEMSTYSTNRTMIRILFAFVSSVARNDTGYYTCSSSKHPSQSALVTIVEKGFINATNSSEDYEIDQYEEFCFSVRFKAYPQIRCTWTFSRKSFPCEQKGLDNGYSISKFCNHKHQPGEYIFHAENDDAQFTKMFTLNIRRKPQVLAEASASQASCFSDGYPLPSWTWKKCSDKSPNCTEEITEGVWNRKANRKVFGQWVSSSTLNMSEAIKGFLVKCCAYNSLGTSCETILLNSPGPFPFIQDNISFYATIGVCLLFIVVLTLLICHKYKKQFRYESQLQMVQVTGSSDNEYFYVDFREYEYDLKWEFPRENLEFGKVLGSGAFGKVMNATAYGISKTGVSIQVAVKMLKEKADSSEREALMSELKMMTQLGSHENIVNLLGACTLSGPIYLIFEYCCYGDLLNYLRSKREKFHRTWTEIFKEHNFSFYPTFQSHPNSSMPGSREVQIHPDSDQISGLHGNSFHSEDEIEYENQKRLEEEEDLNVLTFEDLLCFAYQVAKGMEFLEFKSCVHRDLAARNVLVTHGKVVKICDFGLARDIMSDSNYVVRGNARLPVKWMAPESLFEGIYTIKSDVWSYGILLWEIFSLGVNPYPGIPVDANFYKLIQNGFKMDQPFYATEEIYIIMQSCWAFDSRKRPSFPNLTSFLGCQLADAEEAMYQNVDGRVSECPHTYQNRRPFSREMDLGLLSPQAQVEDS
Assay: Reaction Biology NanoBRET target engagement assay, FLT3
Format: cell-based
Conditions: transfected HEK-293 cells
Excerpt: The NanoBRET assay measures kinase engagement in real time in the context of the intact cell. Unlike the previously described biochemical kinase assay methodologies in Examples 26-27, the NanoBRET assay measures the binding and activity characteristics under equilibrium conditions using full-length kinases in the presence of cellular concentrations of ATP in live, uncompromised cells. As such, the assay provides a more relevant assessment of kinase potency and selectivity that would be expected to be observed in the native cellular environment, where potency is often considerably lower than that observed in the isolated biochemical assays (Vasta, J. D. et al., (2018) Cell Chem. Biol. 25, 206-214). The assay uses a Kinase-NanoLuc® fusion vector expressing a kinase protein to which a luciferase tag has been added, a cell-permeant fluorescent NanoBRET™ tracer, a NanoLuc® substrate, and an extracellular NanoLuc® inhibitor. Upon expression of the luciferase-tagged kinase, cells will produce a strong BRET signal only in the presence of the NanoBRET™ tracer. The extracellular NanoLuc® inhibitor ensures that the BRET signal observed emanates only from live cells. Because the BRET signal has tight distance constraints, addition of the test compound will decrease the BRET signal if the compound competes with the NanoBRET™ tracer for binding to the kinase domain. Under the appropriate tracer conditions established by the manufacturer, quantitative intracellular affinity and relative potency can then be determined using Mass Action model equations.
HEK-293 cells were purchased from ATCC. FuGENEHD Transfection Reagent, Kinase-NanoLucfusion plasmids, Transfection Carrier DNA, NanoBRETTracers and dilution buffer, NanoBRETNano-Glo Substrate, Extracellular NanoLucInhibitor were obtained from Promega.
Assays were conducted following Promega assay protocol with some modifications. HEK-293 Cells were transiently transfected with Kinase-NanoLucFusion Vector DNA by FuGENEHD Transfection Reagent. Testing compounds were delivered into 384 well assay plate by Echo 550 (LabcyteInc, Sunnyvale, CA). Transfected cells were harvested and mixed with NanoBRETTracer Reagent and dispensed into 384 well plates and incubated at 37° C. in 5% CO2 cell culture incubator for 1 hour. The NanoBRETNano-Glo Substrate plus Extracellular NanoLucInhibitor Solution were added into the wells of the assay plate and incubated for 2-3 minutes at room temperature. The donor emission wavelength (460 nm) and acceptor emission wavelength (600 nm) were measured in the EnVisionplate reader. The BRET Ratios were calculated. BRET Ratio=[(Acceptor sample÷Donor sample)−(Acceptor no-tracer control÷Donor no-tracer control)]. The IC50 values of compounds were calculated with Prism GraphPad program.
• 1). Cultivate HEK-293 cells (70-80% confluence) appropriately prior to assay. Trypsinize and collect HEK-293 cells. • 2). Prepare lipid: DNA complexes as follows: • a. Prepare a 10 μg/ml solution of DNA in Opti-MEM without serum that consists of the following ratios of carrier DNA and DNA encoding NanoLuc® fusion. 9.0 μg/mL of Transfection Carrier DNA, 1.0 μg/mL of NanoLuc fusion vector DNA and 1 mL of Opti-MEM without phenol red. Mix thoroughly. • b. Add 30 μl of FuGENE HD Transfection Reagent into each milliliter of DNA mixture to form lipid:DNA complex. • c. Mix by inversion 10 times. • d. Incubate at ambient temperature for 20 minutes to allow complexes to form. • 3). In a sterile, conical tube, mix 1 part of lipid:DNA complex with 20 parts of HEK-293 cells in suspension. Mix gently by inversion 5 times. • 4). Dispense cells+lipid:DNA complex into a sterile tissue culture dish and incubate for 22-24 hours. 2. Addition of Test Compounds (Dry Plate Shooting)
Each test compound is delivered from the compound source plate to the wells of 384-well white NBS plate by Echo 550.
• 1). […]

Question: With `COc1cc2ncc(-c3nc(N[C@H]4CNCC[C@@H]4F)c(F)cc3F)n2nc1C(C)(C)O` [Compound 128, 2-(3-(3,5-difluoro-6-(((3S,4S)-4-fluoropiperidin-3-yl)amino)pyridin-2-yl)-7-methoxyimidazo[1,2-b]pyridazin-6-yl)propan-2-ol] as the molecule, how does the IC50 read?
Answer: Its IC50 is 102 nM.

Question: For `COc1cc2ncc(-c3nc(N[C@H]4CNCC[C@@H]4F)c(F)cc3F)n2nc1C1CC1` [Compound 108, 6-(6-cyclopropyl-7-methoxyimidazo[1,2-b]pyridazin-3-yl)-3,5-difluoro-N-((3S,4S)-4-fluoropiperidin-3-yl)pyridin-2-amine], which IC50 is on record?
Answer: Its IC50 is under 0.5 nM.

Question: How did the IC50 turn out when `COc1cc2ncc(-c3cccc(N[C@H]4CNC[C@@H]4C(F)(F)F)n3)n2nc1C1CC1` [Compound 99, 6-(6-cyclopropyl-7-methoxyimidazo[1,2-b]pyridazin-3-yl)-N-((3R,4S)-4-(trifluoromethyl)pyrrolidin-3-yl)pyridin-2-amine] was run?
Answer: The IC50 was 3 nM.

Question: How did the IC50 turn out when `c1cc(N[C@@H]2CCCNC2)nc(-c2cnc3ccc(-c4cnn5ccccc45)nn23)c1` [Compound 19, (R)-N-(piperidin-3-yl)-6-(6-(pyrazolo[1,5-a]pyridin-3-yl)imidazo[1,2-b]pyridazin-3-yl)pyridin-2-amine] was run?
Answer: The IC50 was 142 nM.

Question: For `COc1cc2ncc(-c3nc(N[C@@H]4CCCNC4)c(F)cc3F)n2nc1C(C)(C)O` [Compound 127, (R)-2-(3-(3,5-difluoro-6-(piperidin-3-ylamino)pyridin-2-yl)-7-methoxyimidazo[1,2-b]pyridazin-6-yl)propan-2-ol], which IC50 is on record?
Answer: The IC50 was 196 nM.

Question: For `COc1cc2ncc(-c3cccc(N[C@H]4CNC[C@@H]4F)n3)n2nc1C1CC1` [Compound 96, 6-(6-cyclopropyl-7-methoxyimidazo[1,2-b]pyridazin-3-yl)-N-((3S,4S)-4-fluoropyrrolidin-3-yl)pyridin-2-amine], which IC50 is on record?
Answer: Its IC50 is 18 nM.

Question: How did the IC50 turn out when `COc1cc2ncc(-c3nc(N[C@H]4CNC[C@@H]4F)c(F)cc3F)n2nc1C1CC1` [Compound 107, 6-(6-cyclopropyl-7-methoxyimidazo[1,2-b]pyridazin-3-yl)-3,5-difluoro-N-((3S,4S)-4-fluoropyrrolidin-3-yl)pyridin-2-amine] was run?
Answer: Its IC50 is 4890 nM.

Question: For `COc1cc2ncc(-c3cccc(N[C@H]4CNCC[C@@H]4F)n3)n2nc1C1CC1` [Compound 102, 6-(6-cyclopropyl-7-methoxyimidazo[1,2-b]pyridazin-3-yl)-N-((3S,4S)-4-fluoropiperidin-3-yl)pyridin-2-amine], which IC50 is on record?
Answer: The IC50 was 4 nM.

Question: With `COc1cc2ncc(-c3nc(N[C@H]4CNC[C@@H]4F)c(F)cc3F)n2nc1C(C)(C)O` [Compound 126, 2-(3-(3,5-difluoro-6-(((3S,4S)-4-fluoropyrrolidin-3-yl)amino)pyridin-2-yl)-7-methoxyimidazo[1,2-b]pyridazin-6-yl)propan-2-ol] as the molecule, how does the IC50 read?
Answer: The IC50 was 1160 nM.

Question: Which IC50 does the source give for `COc1cc2ncc(-c3cccc(N[C@H]4CNC[C@@H]4F)n3)n2nc1C(C)(O)C(F)(F)F` (single isomer, unassigned; fast-eluting) [Compound 133] here?
Answer: The IC50 was 226 nM.

Question: For `F[C@H]1CNC[C@@H]1Nc1cccc(-c2cnc3ccc(-c4cnn5ccccc45)nn23)n1` [Compound 9, N-((3S,4S)-4-fluoropyrrolidin-3-yl)-6-(6-(pyrazolo[1,5-a]pyridin-3-yl)imidazo[1,2-b]pyridazin-3-yl)pyridin-2-amine], which IC50 is on record?
Answer: Its IC50 is 367 nM.

Question: How did the IC50 turn out when `COc1cc2ncc(-c3nc(N[C@@H]4CCCNC4)c(F)cc3F)n2nc1C1CC1` [Compound 106, (R)-6-(6-cyclopropyl-7-methoxyimidazo[1,2-b]pyridazin-3-yl)-3,5-difluoro-N-(piperidin-3-yl)pyridin-2-amine] was run?
Answer: Its IC50 is under 0.5 nM.
